Entries after “also recorded” stand apart in the source; their conditions may differ.
Columns and labels:
Raji cells = experiment: Cytotoxicity study, MTS cell proliferation assay, 5 days; assay type: cell-based, human; details: Homo sapiens, Raji
Method: The human Burkitt lymphoma cell line Raji was obtained from the American Type Tissue Culture Collection and cultured in RPMI 1640 medium (ATCC) supplemented with 10% fetal bovine serum (ATCC,) at 37° C., 5% CO2. The COMPOUND I-resistant Raji (Raji/COMPOUND IR) cell line was generated by exposure to progressively higher concentrations of COMPOUND I over a period of 6 months. CAOV3 cells were obtained from ATCC and cultured in complete DMEM supplemented with 10% fetal bovine serum. MCF7 vector controlled and BRCA1 shRNA subclones were obtained from Dr. Simon Powell (Memorial Sloan-Kettering Cancer Center) and cultured in EMBM with 10% fetal bovine serum. MCF10A and hTERT-IMEC clones were obtained from Dr. Ben Ho Park (Johns Hopkins University). HCT116 BRCA2^+/+ cells and BRCA2^−/− cells were obtained from Dr. Samuel Aparicio (British Columbia Cancer Research Centre). PEO1 and PEO4 cells were obtained from Dr. Sharon Cantor (University of Massachusetts) and these cell lines were cultured under the same conditions as previously published. Sakai et al., Functional restoration of BRCA2 protein by secondary BRCA2 mutations in BRCA2-mutated ovarian carcinoma, Cancer Res. 2009; 69 (16):6381-6; Konishi et al., Mutation of a single allele of the cancer susceptibility gene BRCA1 leads to genomic instability in human breast epithelial cells, Proc. Natl. Acad. Sci. 2011; 108 (43):17773-8; Xu et al., CX-5461 is a DNA G-quadruplex stabilizer with selective lethality in BRCA1/2 deficient tumours, Nature Communications 2017; 8:14432, all of which are hereby incorporated by reference.
Cells were plated and treated with the indicated drugs in 96-well plates for 5 days. Cell viability was measured using CellTiter 96 AQueous one solution (MTS) cell proliferation assay purchased from Promega, and IC50 values were calculated using GraphPad Prism 6 Software.

[1] = Stability / complex formation in culture medium and on storage; assay type: physicochemical; details: COMPOUND I incubated with complete tissue culture medium
Method: Five molar equivalents of ferrous ion as FeSO4 in a concentrated water stock was added to COMPOUND I in ethanol which produced a deep red precipitate that was subsequently dissolved in DMSO and characterized by HPLC and mass spectrometry. Fe(COMPOUND I)3 was >95% pure and stable in the complete RPMI-1640 media for at least 5 days.

[2] = system: BIK, BAD, MCL-1 in Raji/COMPOUND IR cells; experiment: Western blot of proteins involved in apoptosis; assay type: cell-based, human
Excerpt: In order to delineate which effects of COMPOUND I are most closely linked to sensitivity for this drug, a subline of the Raji Burkitt's lymphoma cell line that had acquired resistance (Raji/COMPOUND IR) as a result of repeated exposure to progressively higher concentrations of COMPOUND I over a period of 6 months was developed. Resistance evolved slowly and progressively without an abrupt change at any point during the selection process. […] This is in the same range as has been reported for freshly isolated AML blasts and CLL cells. Zhang et al., “Inhibition of c-Myc by ATPO-COMPOUND I as an Innovative Therapeutic Approach to Induce Cell Cycle Arrest and Apoptosis in Acute Myeloid Leukemia [abstract],” Blood 2016; 128:1716; Kurtz et al., “Broad Activity of COMPOUND I in AML and other Hematologic Malignancies Correlates with KFL4 Expression Level [abstract],” Blood 2015; 126:1358, both of which are hereby incorporated by reference. […] The level of resistance remained stable for at least 3 months during culture in drug-free media (FIG. 4A). Raji/COMPOUND IR cells grew slightly faster than the parental cells but the difference was not statistically significant.

MYC in AML cell lines = experiment: MYC mRNA (qRT-PCR) and protein (Western blot) levels; assay type: cell-based; details: all AML cell lines tested, 24 hours
Method: Cells were treated with vehicle or COMPOUND I at various concentrations for 24 hours or at a single concentration for 1, 3, 6, 12, and 24 hours before harvesting. Cells were lysed by QiaShredder columns (QIAGEN, catalog #79656), total RNA was isolated using QIAGEN RNeasy Plus Mini Kit (catalog #74134), and cDNA was synthesized utilizing Transcriptor Universal cDNA master mix (Roche, catalog #05893151001) and then used for qRT-PCR analysis using FastStart essential DNA probes master mix (Roche, catalog #06402682001) and Roche LightCycler96. Primer probe pairs were purchased from IDT (Table 5). Expression was calculated as fold change over vehicle treated samples after normalizing to GAPDH […].
Cells were treated as described above. Whole-cell lysates were prepared, separated by SDS-PAGE, and transferred to nitrocellulose membranes. Densitometry was performed using ImageJ or Image Studio Lite Version5.2 software and normalized to the density of GAPDH.
MYC expression is implicated in the pathogenesis of a wide range of cancers, including leukemia and lymphoma. […] It was also observed that an increased transcription of genes negatively regulated by MYC in COMPOUND I-treated MV4-11 cells. […] The time course of MYC protein repression in MV4-11 cells paralleled inhibition of MYC gene expression levels detected by RNA-seq. […]

[3] = system: MYC mRNA stability in EOL-1 cells; experiment: RNA decay assay; assay type: cell-based; details: 500 nmol/L 3 hours, then 1 μmol/L actinomycin D
Method: Cells were treated for 3 hours with vehicle DMSO or 500 nmol/L COMPOUND I followed by 1 μmol/L actinomycin D. Aliquots of cells were taken before and then every 10 minutes after actinomycin D addition for RNA extraction and cDNA synthesis as for qRT-PCR analysis. Levels of MYC and 28s rRNA were analyzed using specific primers (Table 8) and MYC RNA expression was normalized to 28 s rRNA [2^(28 s Ct value−MYC Ct value)].
Regulation of MYC expression is a complex process that involves MYC transcription, mRNA stability, and protein turnover. ChIP-qPCR analysis for H3K27ac, a well-established marker of active chromatin, was performed to assess transcriptional competency of the MYC gene promoter after treatment with COMPOUND I (FIG. 19D). […] To determine whether COMPOUND I affected MYC mRNA stability, an RNA decay assay was performed on EOL-1 cells.

[4] = patients with solid tumors, up to maximum tolerated dose; cited from earlier work

Work on `Cc1[nH]c2ccc(F)cc2c1-c1nc2c3cccnc3c3ncccc3c2[nH]1` [COMPOUND I, 2-(5-fluoro-2-methyl-1H-indol-3-yl)-1H-imidazo[4,5-f][1,10]phenanthroline] yielded an IC50 (Raji cells; 120 h, parental Raji cells, growth rate during 120 h exposure) of 91.9 ± 22.3 nM, an IC50 (Raji cells; COMPOUND I + 5 nM Ko143) of 98.3 ± 0.8 nM and an IC50 (Raji cells; COMPOUND I + 50 nM Ko143) of 103 ± 2.9 nM. The IC50 (Raji cells; COMPOUND I alone, mean ± SEM) was 105 nM, the “extracellular Fe(COMPOUND I)3 formation” value [1] was “no extracellular Fe(COMPOUND I)3 was detected” and the “changes in BIK, BAD, MCL-1” value ([2]; 0.5 μM, 24 h) was “None of these changes were detected”. For the same compound, the induction of apoptosis ([2]; concentration that induced apoptosis in Raji sensitive cells) was “failed to trigger apoptosis”, the “MYC mRNA and protein levels” value (MYC in AML cell lines) was “concentration-dependent decrease in both MYC mRNA and protein levels” and the “MYC mRNA levels in pretreated cells versus vehicle” value [3] was “clear decrease in MYC mRNA levels”. The myelosuppression [4] was “did not produce myelosuppression; also recorded: does not produce myelosuppression”.

— patent publication US11149047B2, “Aryl imidazoles for treatment of cancer” (Aptose Biosciences Inc., priority 2017, dated 2021)
